Measured values from ChEMBL document CHEMBL5550149, “Synthesis and evaluation of catecholamine derivatives as amyloid-beta aggregation inhibitors” (Bioorg Med Chem Lett, 2024).
In brackets after ≈: the same amount, converted by molar mass. Activity calls are given as the source filed them. The rule behind the calls is not given here.

Assays:
[1] = target: Amyloid-beta precursor protein (Homo sapiens) (UniProt P05067); assay: Inhibition of amyloid beta (unknown origin) aggregation at 1 uM incubated for 20 hrs by Tht-based fluorescence spectroscopy assay relative to control
Chain of Amyloid-beta precursor protein (Homo sapiens) (P05067 whole entry): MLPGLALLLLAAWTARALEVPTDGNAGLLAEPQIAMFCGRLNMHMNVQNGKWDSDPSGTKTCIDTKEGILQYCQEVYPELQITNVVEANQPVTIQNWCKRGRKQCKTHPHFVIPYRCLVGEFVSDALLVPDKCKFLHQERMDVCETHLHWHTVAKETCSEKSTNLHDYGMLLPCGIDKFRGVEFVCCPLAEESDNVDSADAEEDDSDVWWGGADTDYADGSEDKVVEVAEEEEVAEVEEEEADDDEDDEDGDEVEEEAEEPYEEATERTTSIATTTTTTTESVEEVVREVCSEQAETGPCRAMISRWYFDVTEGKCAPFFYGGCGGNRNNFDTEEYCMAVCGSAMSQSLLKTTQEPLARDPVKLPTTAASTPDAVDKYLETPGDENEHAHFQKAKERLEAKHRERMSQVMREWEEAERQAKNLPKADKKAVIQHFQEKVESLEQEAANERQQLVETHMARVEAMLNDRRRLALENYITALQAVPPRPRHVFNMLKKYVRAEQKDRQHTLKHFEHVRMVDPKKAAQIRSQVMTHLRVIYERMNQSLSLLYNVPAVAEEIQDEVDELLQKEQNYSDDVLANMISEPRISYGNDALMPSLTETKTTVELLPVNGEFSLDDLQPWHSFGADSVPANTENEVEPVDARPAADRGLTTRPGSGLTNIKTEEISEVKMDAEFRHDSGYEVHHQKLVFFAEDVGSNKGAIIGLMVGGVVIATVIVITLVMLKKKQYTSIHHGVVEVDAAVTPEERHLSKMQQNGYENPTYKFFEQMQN

[2] = target: Amyloid-beta precursor protein (Homo sapiens) (UniProt P05067); assay: Inhibition of amyloid beta (unknown origin) aggregation at 10 uM incubated for 20 hrs by Tht-based fluorescence spectroscopy assay relative to control
[3] = Cytotoxicity against rat PC12 cells measured for 24 hrs by WST-assay; format: toxicity, cell-based, PC-12
[4] = Aqueous solubility of compound by shake flask method; format: physicochemical; conditions: water
[5] = target: Amyloid-beta precursor protein (Homo sapiens) (UniProt P05067); assay: Inhibition of amyloid beta (unknown origin) aggregation assessed as aggregate diameter by […] analysis
[6] = target: Amyloid-beta precursor protein (Homo sapiens) (UniProt P05067); assay: Inhibition of amyloid beta (unknown origin) aggregation assessed as change in aggregated monomers structure measured for 10 hrs by Tht-based fluorescence spectroscopy assay
[7] = target: Amyloid-beta precursor protein (Homo sapiens) (UniProt P05067); assay: Inhibition of amyloid beta (unknown origin) aggregation assessed as reduction in rod like structure by […] analysis
[8] = target: Amyloid-beta precursor protein (Homo sapiens) (UniProt P05067); assay: Inhibition of amyloid beta (unknown origin) aggregation assessed as reduction in beta-sheet formation by CD spectroscopy analysis

Row | SMILES | inhibition [1] [%] | inhibition [2] [%] | CC50 at 24 h [3] [µM] | solubility thermodynamic [4] [µM] | Activity [5] [nm] | inhibition [6] | inhibition [7] | inhibition [8]
1 | O=C(Cc1cccc(O)c1O)NCCc1ccc(O)c(O)c1 | 0 | 70 | > 150 | 2000 (≈ 607 µg/mL) | – | – | – | –
2 | O=C(/C=C/c1ccccc1)NCCc1ccc(O)c(O)c1 | 40 | 92 | > 150 | 750 (≈ 212 µg/mL) | – | – | – | –
3 | N[C@@H](Cc1ccc(O)c(O)c1)C(=O)O | 0 | 31 | – | – | – | – | – | –
4 | O=C(/C=C/c1ccc(O)c(O)c1)N[C@@H](Cc1ccc(O)c(O)c1)C(=O)O | – | 86 | > 150 | 1410 (≈ 507 µg/mL) | – | – | – | –
5 | O=C(N[C@H](CO)Cc1ccc(O)c(O)c1)c1cc(O)ccc1O | 28 | 70 | > 150 | 2500 (≈ 798 µg/mL) | – | – | – | –
6 | O=C(Cc1cc(O)cc(O)c1)NCCc1ccc(O)c(O)c1 | 0 | 25 | > 150 | 1800 (≈ 546 µg/mL) | – | – | – | –
7 | O=C(N[C@H](CO)Cc1ccc(O)c(O)c1)c1cc(O)cc(O)c1 | 0 | 22 | > 150 | 1500 (≈ 479 µg/mL) | – | – | – | –
8 | O=C(Cc1cc(O)ccc1O)NCCc1ccc(O)c(O)c1 | 19 | 80 | > 150 | 800 (≈ 243 µg/mL) | – | – | – | –
9 | O=C1C=C(c2ccc(O)c(O)c2)OC(c2cc(O)ccc2O)C1 (centres undefined) | 76 | – | – | 2340 (≈ 735 µg/mL) | – | – | – | –
10 | O=C(Cc1cc(O)c(O)c(O)c1)NCCc1ccc(O)c(O)c1 | 20 | 90 | 80 | 3200 (≈ 1020 µg/mL) | – | – | – | –
11 | O=C(N[C@H](CO)Cc1ccc(O)c(O)c1)c1cc(O)c(O)c(O)c1 | 16 | 85 | 80 | 3000 (≈ 1010 µg/mL) | – | – | – | –
12 | O=C(Cc1ccc(O)c(O)c1)NCCc1ccc(O)c(O)c1 | 29 | 92 | > 150 | 2500 (≈ 758 µg/mL) | – | – | – | –
13 | O=C(N[C@H](CO)Cc1ccc(O)c(O)c1)c1ccc(O)c(O)c1 | 35 | 90 | > 150 | 1200 (≈ 383 µg/mL) | – | – | – | –
14 | COC(=O)[C@H](Cc1ccc(O)c(O)c1)NC(=O)c1cc(O)c(O)c(O)c1 | 30 | 95 | 150 | 377 (≈ 137 µg/mL) | – | – | – | –
15 | O=C(/C=C/c1ccc(O)c(O)c1)NCCc1ccc(O)c(O)c1 | 55 | 100 | > 150 | 1500 (≈ 473 µg/mL) | 74 | Active | Active | inactive
16 | O=C(N[C@H](CO)Cc1ccc(O)c(O)c1)c1ccccc1 | 0 | 70 | > 150 | 700 (≈ 201 µg/mL) | – | – | – | –
17 | O=C(N[C@H](CO)Cc1ccc(O)c(O)c1)c1ccc(O)cc1 | 0 | 20 | > 150 | 1600 (≈ 485 µg/mL) | – | – | – | –
18 | O=C(Cc1ccccc1)NCCc1ccc(O)c(O)c1 | 0 | 30 | > 150 | 1300 (≈ 353 µg/mL) | – | – | – | –
19 | O=C(N[C@H](CO)Cc1ccc(O)c(O)c1)c1cccc(O)c1O | 0 | 80 | > 150 | 1300 (≈ 415 µg/mL) | – | – | – | –
20 | O=C(Cc1ccc(O)cc1)NCCc1ccc(O)c(O)c1 | 18 | 80 | > 150 | 2000 (≈ 575 µg/mL) | – | – | – | –
